The text below walks through data of patent publication US11427548B2 (Arvinas Operations, Inc., priority 2015, dated 2022).

Each structure is given as a SMILES string. Like-named read-outs stand apart in the source and are kept apart here.

One may read the Dmax as the greatest extent of degradation seen. By DC50 is commonly meant the midpoint of the concentration-degradation curve.

This assay has as its target T1, Androgen Receptor (Homo sapiens, UniProt P10275).
T1 construct: endogenous in cells; host or cells: VCaP cells
T1 sequence (P10275 1-920): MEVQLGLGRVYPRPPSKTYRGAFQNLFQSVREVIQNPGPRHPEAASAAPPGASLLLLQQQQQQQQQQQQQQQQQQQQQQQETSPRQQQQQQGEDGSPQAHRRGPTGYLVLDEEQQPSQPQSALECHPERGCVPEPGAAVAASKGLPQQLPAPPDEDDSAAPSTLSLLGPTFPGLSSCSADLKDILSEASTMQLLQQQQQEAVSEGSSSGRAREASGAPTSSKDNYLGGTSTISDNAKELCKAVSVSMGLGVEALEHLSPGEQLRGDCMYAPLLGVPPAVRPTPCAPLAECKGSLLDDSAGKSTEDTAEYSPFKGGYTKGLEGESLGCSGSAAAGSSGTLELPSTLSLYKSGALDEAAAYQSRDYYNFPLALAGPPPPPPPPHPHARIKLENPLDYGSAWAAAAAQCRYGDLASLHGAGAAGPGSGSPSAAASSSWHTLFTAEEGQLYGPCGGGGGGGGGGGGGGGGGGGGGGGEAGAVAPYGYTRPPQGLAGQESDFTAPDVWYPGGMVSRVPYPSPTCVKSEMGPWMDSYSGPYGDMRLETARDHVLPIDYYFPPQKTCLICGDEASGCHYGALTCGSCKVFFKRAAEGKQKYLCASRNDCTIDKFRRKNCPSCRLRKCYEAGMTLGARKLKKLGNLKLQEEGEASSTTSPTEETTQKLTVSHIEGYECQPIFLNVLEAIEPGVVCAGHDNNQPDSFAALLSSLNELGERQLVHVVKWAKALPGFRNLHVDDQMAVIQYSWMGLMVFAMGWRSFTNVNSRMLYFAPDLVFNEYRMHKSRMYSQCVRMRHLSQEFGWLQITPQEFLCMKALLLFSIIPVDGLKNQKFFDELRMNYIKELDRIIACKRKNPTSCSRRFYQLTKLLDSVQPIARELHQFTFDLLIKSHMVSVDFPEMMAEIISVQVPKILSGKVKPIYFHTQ
In words: Androgen Receptor ELISA assay (PathScan AR ELISA) in VCaP cells: AR degradation, Dmax and DC50. The assay is classed as cell-based. In outline:
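VCaP cells in phenol red-free RPMI with 5% charcoal-stripped FBS were grown at least 3 days, then given compound as 7 half-log doses in 0.1% DMSO with 0.1 nM R1881 for 24 h. Lysates went into a sandwich AR ELISA with TMB read at 450 nm.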
In general terms: ELISA stands for enzyme-linked immunosorbent assay.

The mark [1] stands for this setting: read-out: VCaP DC50; VCaP cells; Table 36.
[2] abbreviates: VCaP cells; Table 36; read-out: VCaP DC50.
Where [3] appears, read: VCaP, VCaP cells; Table 36; read-out: VCaP Dmax (%).

As for `Cc1ncsc1-c1ccc([C@H](C)NC(=O)[C@@H]2CC3CN2C(=O)C(C(C)(C)C)NC(=O)COCCCOCCC(CCOc2ccc(N4C(=S)N(c5ccc(C#N)c(C(F)(F)F)c5)C(=O)C4(C)C)cc2)OC(=O)CC/C=C/CCC(=O)O3)cc1` (stereo partly drawn) [Example 619, (3S,25R,27S,E)-3-(tert-butyl)-14-(2-(4-(3-(4-cyano-3-(trifluoromethyl)phenyl)-5,5-dimethyl-4-oxo-2-thioxoimidazolidin-1-yl)phenoxy)ethyl)-N-((S)-1-(4-(4-methylthiazol-5-yl)phenyl)ethyl)-2,5,16,23-tetraoxo-7,11,15,24-tetraoxa-1,4-diazabicyclo[23.2.1]oct-acos-19-ene-27-carboxamide], under “VCaP, read-out: VCaP Dmax (%)”, the Dmax is under 25%. The DC50 under setting [1] was over 501 nM.

Regarding `Cc1ncsc1-c1ccc([C@H](C)NC(=O)[C@@H]2CC3CN2C(=O)C(C(C)(C)C)NC(=O)COCCCOCCC(CCOc2ccc(N4C(=S)N(c5ccc(C#N)c(C(F)(F)F)c5)C(=O)C4(C)C)cc2)OC(=O)CC/C=C/CCC(=O)O3)cc1` (stereo partly drawn) [Example 620, (3S,25R,27S,E)-3-(tert-butyl)-14-(2-(4-(3-(4-cyano-3-(trifluoroemthyl)phenyl)-5,5-dimethyl-4-oxo-2-thioxoimidazolidin-1-yl)phenoxy)ethyl)-N-((S)-1-(4-(4-methylthiazol-5-yl)phenyl)ethyl)-2,5,16,23-tetraoxo-7,11,15,24-tetraoxa-1,4-diazabicyclo[23.2.1]oct-acos-19-ene-27-carboxamide], the DC50 under setting [1] is over 501 nM. For `Cc1ncsc1-c1ccc([C@H](C)NC(=O)[C@@H]2C[C@@H]3CN2C(=O)[C@H](C(C)(C)C)NC(=O)COCCCOCCC(CCOc2ccc(N4C(=S)N(c5ccc(C#N)c(C(F)(F)F)c5)C(=O)C4(C)C)cc2)OC(=O)CCc2cn(nn2)CCCCCC(=O)O3)cc1` (stereo partly drawn) [Example 621, (93R,95S,11S,Z)-11-(tert-butyl)-22-(2-(4-(3-(4-cyano-3-(trifluoromethyl)phenyl)-5,5-dimethyl-4-oxo-2-thioxoimidazolidin-1-yl)phenoxy)ethyl)-N-((S)-1-(4-(4-methylthiazol-5-yl)phenyl)ethyl)-7,10,13,24-tetraoxo-11H-8,15,19,23-tetraoxa-12-aza-1(1,4)-triazola-9(3,1)-pyrrolidinacyclohexaco-saphane-95-carboxamide], the Dmax (VCaP, read-out: VCaP Dmax (%)) is under 25%. In addition, under setting [1], the DC50 was over 501 nM. On to `Cc1ncsc1-c1ccc([C@H](C)NC(=O)[C@@H]2C[C@@H](O)CN2C(=O)[C@@H](NC(=O)CN2CCO[C@H](CN3CCO[C@@H](COc4ccc(N5C(=S)N(c6ccc(C#N)c(C(F)(F)F)c6)C(=O)C5(C)C)cc4)C3)C2)C(C)(C)C)cc1` [Example 622, (2S,4R)-1-((S)-2-(2-((R)-2-(((R)-2-((4-(3-(4-cyano-3-(trifluoromethyl)phenyl)-5,5-dimethyl-4-oxo-2-thioxoimidazolidin-1-yl)phenoxy)methyl)mor-pholino)methyl)mor-pholino)acetamido)-3,3-dimethylbutanoyl)-4-hydroxy-N-((S)-1-(4-(4-methylthiazol-5-yl)phenyl)ethyl)pyrrolidine-2-carboxamide], for which the Dmax (VCaP, read-out: VCaP Dmax (%)) was under 25%. For the same molecule, under setting [1], the DC50 is over 501 nM. For the molecule `Cc1ncsc1-c1ccc([C@H](C)NC(=O)C2C[C@@H](O)CN2C(=O)C(NC(=O)CN2CCC(OCCOc3ccc(C(=O)N[C@H]4C(C)(C)[C@H](Oc5ccc(C#N)c(Cl)c5)C4(C)C)cc3)CC2)C(C)(C)C)cc1` (stereo partly drawn) [Example 623, (2S,4R)-1-((S)-2-(2-(4-(2-(4-(((1r,3r)-3-(3-chloro-4-cyanophenoxy)-2,2,4,4-tetramethylcyclobutyl)carbamoyl)phenoxy)eth-oxy)piperidin-1-yl)acetamido)-3,3-dimethylbutanoyl)-4-hydroxy-N-((S)-1-(4-(4-methylthiazol-5-yl)phenyl)ethyl)pyrrolidine-2-carboxamide], the DC50 under setting [2] was under 50 nM. Further, under setting [3], the Dmax is over 71%. Taken in the same sequence, the figures for `Cc1ncsc1-c1ccc([C@H](C)NC(=O)[C@@H]2CC(O)CN2C(=O)[C@H](C(C)C)n2nccc2OCCCCCNc2ccc(C(=O)N[C@H]3C(C)(C)[C@H](Oc4ccc(C#N)c(Cl)c4)C3(C)C)cc2)cc1` (stereo partly drawn) [Example 624, (2S,4R)-1-((S)-2-(5-((5-((4-(((1r,3r)-3-(3-chloro-4-cyanophenoxy)-2,2,4,4-tetramethylcyclobutyl)carbamoyl)phenyl)amino)pentyl)oxy)-1H-pyrazol-1-yl)-3-methylbutanoyl)-4-hydroxy-N-((S)-1-(4-(4-methylthiazol-5-yl)phenyl)ethyl)pyrrolidine-2-carboxamide] were over 501 nM and under 25%. With `Cc1ncsc1-c1ccc([C@H](C)NC(=O)[C@@H]2CC(O)CN2C(=O)[C@H](C(C)C)n2nccc2OCCCCCNc2ccc(C(=O)N[C@H]3C(C)(C)[C@H](Oc4ccc(C#N)c(Cl)c4)C3(C)C)cc2)cc1` (stereo partly drawn) [Example 625, (2S,4R)-1-((R)-2-(5-((5-((4-(((1r,3r)-3-(3-chloro-4-cyanophenoxy)-2,2,4,4-tetramehtylcyclobutyl)carbamoyl)phenyl)amino)pentyl)oxy)-1H-pyrazol-1-yl)-3-methylbutanoyl)-4-hydroxy-N-((S)-1-(4-(4-methylthiazol-5-yl)phenyl)ethyl)pyrrolidine-2-carboxamide], the “VCaP Dmax (%)” value (VCaP cells; Table 36) was “++ (26% ≤ Dmax ≤ 50%)”. Also, under setting [2], the DC50 is over 501 nM.

For `Cc1ncsc1-c1ccc([C@H](C)NC(=O)[C@@H]2C[C@@H](O)CN2C(=O)[C@H](C(C)C)n2cc(Oc3ccc(OC4CCC(Oc5ccc(N6C(=S)N(c7ccc(C#N)c(C(F)(F)F)c7)C(=O)C6(C)C)cc5)CC4)nc3)cn2)cc1` (stereo partly drawn) [Example 627, (2S,4R)-1-((S)-2-(4-((6-((4-(4-(3-(4-cyano-3-(trifluoromethyl)phenyl)-5,5-dimethyl-4-oxo-2-thioxoimidazolidin-1-yl)phenoxy)cyclohexyl)oxy)pyridin-3-yl)oxy)-1H-pyrazol-1-yl)-3-methylbutanoyl)-4-hydroxy-N-((S)-1-(4-(4-methylthiazol-5-yl)phenyl)ethyl)pyrrolidine-2-carboxamide], for the setting “VCaP, read-out: VCaP Dmax (%)”, the Dmax lay in the range of 26 to 50%. Under setting [1], the DC50 was over 501 nM.

For the molecule `Cc1ncsc1-c1ccc([C@H](C)NC(=O)[C@@H]2C[C@@H](O)CN2C(=O)[C@@H](C(C)C)n2cc(Oc3ccc(OC4CCC(Oc5ccc(N6C(=S)N(c7ccc(C#N)c(C(F)(F)F)c7)C(=O)C6(C)C)cc5)CC4)nc3)cn2)cc1` (stereo partly drawn) [Example 628, (2S,4R)-1-((R)-2-(4-((6-((4-(4-(3-(4-cyano-3-(trifluoromethyl)phenyl)-5,5-dimethyl-4-oxo-2-thioxoimidazolidin-1-yl)phenoxy)cyclohexyl)oxy)pyridin-3-yl)oxy)-1H-pyrazol-1-yl)-3-methylbutanoyl)-4-hydroxy-N-((S)-1-(4-(4-methylthiazol-5-yl)phenyl)ethyl)pyrrolidine-2-carboxamide], the Dmax (VCaP, read-out: VCaP Dmax (%)) was 26 to 50%. For the same molecule, the DC50 under setting [1] was over 501 nM.

Consider `Cc1ncsc1-c1ccc([C@H](C)NC(=O)C2CC3CN2C(=O)C(C(C)(C)C)NC(=O)COCCCOCCC(CCOc2ccc(N4C(=O)N(c5ccc(C#N)c(C(F)(F)F)c5)C(=O)C4(C)C)cc2)OC(=O)CCCCCn2cc(nn2)CCC(=O)O3)cc1` (stereo partly drawn) [Example 629, (63R,8S,Z)-8-(tert-butyl)-19-(2-(4-(3-(4-cyano-3-(trifluoromethyl)phenyl)-5,5-dimethyl-4-oxo-2-thioxoimidazolidin-1-yl)phenoxy)ethyl)-N-((S)-1-(4-(4-methylthiazol-5-yl)phenyl)ethyl)-4,7,10,21-tetraoxo-11H-5,12,16,20-tetraoxa-9-aza-1(4,1)-triazola-6(3,1)-pyrrolidineacyclohexaco-saphane-65-carboxamide], for which, for the setting “VCaP, read-out: VCaP Dmax (%)”, the Dmax was 26 to 50%. Under setting [1], the DC50 lay within 51 to 500 nM. In the case of `Cc1ncsc1-c1ccc([C@H](C)NC(=O)[C@@H]2C[C@@H](O)CN2C(=O)[C@@H](NC(=O)COCCCCOc2ccc(-c3ccc(C(=O)N[C@H]4C(C)(C)[C@H](Oc5ccc(C#N)c(Cl)c5)C4(C)C)cc3)cc2)C(C)(C)C)cc1` [Example 630, (2S,4R)-1-((S)-2-(2-(4-((4′-(((1r,3r)-3-(3-chloro-4-cyanophenoxy)-2,2,4,4-tetramethylcyclobutyl)carbamoyl)-[1,1′-biphenyl]-4-yl)oxy)butoxy)acetamido)-3,3-dimethylbutanoyl)-4-hydroxy-N-((S)-1-(4-(4-methylthiazol-5-yl)phenyl)ethyl)pyrrolidine-2-carboxamide], under setting [2], the DC50 is under 50 nM. For the same molecule, where the note is “VCaP, read-out: VCaP Dmax (%), VCaP cells; Table 36”, the Dmax is over 71%.
